Patent US8172395B2, “Medical devices having antimicrobial coatings thereon” (priority 2002, dated 2012)
Where no end group is shown, it is not given here.

Assays:
[1] = system: L929 mammalian fibroblasts; assay: Cytotoxicity, USP Elution Test (MEM elution); settings: 5, 0.5 and 0.05 μg/ml; 25% test solution in medium; L929 cells examined after 48 hours
Experimental: Cytotoxicity of Cecropin A melittin hybrid is evaluated according to the USP Elution Test (“Biological Reactivity Tests, In-Vitro: Elution Test”, The United States Pharmacopeial Convention, Inc.). Cell cultures, L929 mammalian fibroblasts (ATCC cell line CCL1, NCTC clone 929), are grown to a near confluent monolayer in 6 well plates (individual wells are 35 mm diameter). […] The serum-supplemented cell culture medium is prepared by mixing 1000 mL Eagle's sterile minimum essential medium (MEM), 100 mL serum, 10 ml L-glutamine solution and antibiotic-antimycotic solution.

[2] = system: P. aeruginosa (PA) (ATCC# 19660); assay: Mouse organ culture model: adherence of P. aeruginosa to scarified mouse cornea; settings: PA pre-incubated 1 h, PBS control 42.4
Experimental: Using the mouse organ culture model, this assay assesses the ability of a compound to inhibit the binding of P. aeruginosa to scarified eyes. Cecropin A melittin hybrid has been tested at three concentrations: 10, 2, and 0.5 μg/ml.
The solutions are tested for their ability to prevent adherence of P. aeruginosa (PA) (ATCC# 19660) to scarified mouse cornea. For these studies 1×10^7 cfu of PA is combined with each of the solutions at each concentration and incubated for 1 h at room temperature. In addition, 1×10^7 cfu of PA are incubated in PBS for 1 h at room temperature as a control. Following this incubation period, the PA are washed twice to remove the peptide solutions. For each washing step, the cultures are centrifuged at 6,000 rpm for 10 min and pellets are resuspended in 1.0 ml of PBS.
Mouse corneas are scarified under a stereoscopic microscope at 40× magnification. The corneal surface of the eyes is incised with three parallel one-mm wounds. The eyes are then enucleated and placed into sterile culture wells containing 2 ml of MEM.
A 5.0 μl aliquot of each bacterial suspension is delivered onto the surface of the cornea. Eyes are routinely incubated in vitro for 1 h at 37° C. at 95% O2 (5% CO2) after bacterial application. Scanning electron microscopy (SEM) is used to quantitate adherent bacteria.
To determine the efficacy of the peptide, the numbers of bacteria at each concentration is compared from 2 separate identical experiments to the PBS control, p≦0.05 is considered significant. There is a slight reduction at 0.5 μg, but significant difference in adherence at 2 and 10 μg from the control. The values for the bacteria adhered at 0.5 μg is 42.4 and 32.6 for the PBS control and the peptide solution respectively. At 2 μg, it is 42.4 and 15.8 for the PBS control and the peptide solution respectively. At 10 μg, it is 42.4 and 5.8 for the PBS control and the peptide solution respectively.

[3] = system: P. aeruginosa GSU #3 (corneal isolate); type: cell-based, Pseudomnas aeruginosa; settings: 37° C., 24 h; tested 1-20 μg/ml
Experimental: (§1) Two (2) peptides, Cecropin P1 and Cecropin A-melittin hybrid, from American Peptides Company, Inc. are tested against strains of Pseudomnas aeruginosa GSU # 3 (corneal isolate) and # 9027 (a Gram negative organism), Staphylococcus aureus #6538, and Staphylococcus epidermidis # 17917. The first two strains are Gram negative organisms. The last two strains are Gram positive organisms. These organisms are chosen because they are the most common etiological agents causing infection in the eye. The peptides are kept at −70° C. until they are ready to be used. The peptide concentrations tested are 20, 16, 8, 4, 2 and 1 μg/ml in Delbeco's Phosphate Buffered Saline (PBS).
(§2) The bacteria are harvested, washed twice and adjusted to an O.D. of 10^8 cells/ml. Cells then are serially diluted and adjusted to about 5×10^5 cfu/ml. The cells are inoculated into microtiter plates containing serially decreasing peptide concentrations. The inoculum for the bacterial strains are suspended in Mueller Hinton broth, and the final volume in each well is 200 μl. The microtiter plates are incubated at 37° C. for 24 h. The growth is checked as optical density spectrophotometrically in a microtiter plate reader. The O.D. is compared to the blank and to the growth well to determine the MIC. […]

[4] = system: S. aureus #6538; assay: MIC of peptides in Mueller Hinton broth, microtiter plates; type: cell-based, Staphylococcus aureus; settings: 37° C., 24 h; tested 1-20 μg/ml
Experimental: as §1, §2

[5] = system: S. epidermidis #17917; assay: as above; type: cell-based, Staphylococcus epidermidis; settings: 37° C., 24 h; tested 1-20 μg/ml
Experimental: as §1, §2

Row | Compound | Cytotoxicity (MEM elution test) [1] | bacteria adhered (SEM count) ([2]; 0.5 μg/ml peptide) | bacteria adhered (SEM count) ([2]; 2 μg/ml peptide) | bacteria adhered (SEM count) ([2]; 10 μg/ml peptide) | Minimal inhibition concentration, P. aeruginosa GSU #3 [3] | Minimal inhibition concentration, S. aureus #6538 [4] | Minimal inhibition concentration, S. epidermidis #17917 [5]
1 | CC[C@H](C)[C@H](N)C(=O)N[C@@H](CC(C)C)C(=O)N1CCC[C@H]1C(=O)N[C@@H](Cc1c[nH]c2ccccc12)C(=O)N[C@@H](CCCCN)C(=O)N[C@@H](Cc1c[nH]c2ccccc12)C(=O)N1CCC[C@H]1C(=O)N[C@@H](Cc1c[nH]c2ccccc12)C(=O)N[C@@H](Cc1c[nH]c2ccccc12)C(=O)N1CCC[C@H]1C(=O)N[C@@H](Cc1c[nH]c2ccccc12)C(=O)N[C@@H](CCCN=C(N)N)C(=O)N[C@@H](CCCN=C(N)N)C(N)=O [Indolicidin] | non-cytotoxic | – | – | – | – | – | –
2 | KWKLFKKIGAVLKVL-NH2 (C-terminus assumed) [Cecropin A Melittin Hybrid] | non-cytotoxic | 32.6 | 15.8 | 5.8 | >20 μg/ml^1 μg/mL | – | –
3 | SWLSKTAKKLENSAKKRISEGIAIAIQGGPR [Cecropin P1] | – | – | – | – | – | >20 μg/ml^1 μg/mL | >20 μg/ml^1 μg/mL
